Results from ChEMBL document CHEMBL5625227, “Discovery and optimization of 2,3-diaryl-1,3-thiazolidin-4-one-based derivatives as potent and selective cytotoxic agents with anti-inflammatory activity” (Eur J Med Chem, 2023).
Each block holds one molecule with its values, some of them ahead of it. The source made the active and inactive calls. No cut-off for these calls is given here.

Legend:
Rattus norvegicus [1] = assay: Antiinflammatory activity against carrageenan-induced paw edema Sprague-Dawley rat model assessed as inhibition of paw edema by measuring edema thickness at 50 mg/kg, po measured after 3 hrs (reference value: 1.41 +/- 0.13 mm); assay type: functional
Rattus norvegicus [2] = assay: Antiinflammatory activity against carrageenan-induced paw edema Sprague-Dawley rat model assessed as inhibition of inflammation at 50 mg/kg, po after 1 hr relative to control; assay type: functional; design: scale not given: the % may be the effect or the level left
[3] = Selectivity index, ratio of IC50 for cytotoxicity against human MRC5 cells to IC50 for cytotoxicity against human HT-29 cells; details: MRC5 cells versus HT-29 cells
HT-29 [4] = assay: Anti-migration activity in human HT-29 cells assessed as suppression in cell migration at 0.250 uM incubated 48 hrs by wound-healing assay; assay type: functional, cell-based; details: dose 0.25 µM
[5] = Acute ulcerogenic activity in Sprague-Dawley male rat assessed as change in normal keratin at 50 mg/kg/day, po administered for 3 days by hematoxylin and eosin staining method; assay type: toxicity, organism-based, Stomach; details: in vivo, 72 h, time 3 day
Rattus norvegicus [6] = assay: Antiinflammatory activity against carrageenan-induced paw edema Sprague-Dawley rat model assessed as inhibition of paw edema by measuring edema thickness at 50 mg/kg, po measured after 1 hr (reference value: 0.71 +/- 0.03 mm); assay type: functional
[7] = Acute ulcerogenic activity in Sprague-Dawley male rat assessed as ulcer index at 50 mg/kg/day, po administered for 3 days; assay type: toxicity, organism-based; details: in vivo, 72 h, time 3 day
[8] = Acute ulcerogenic activity in Sprague-Dawley male rat assessed as average severity of ulcers at 50 mg/kg/day, po administered for 3 days; assay type: toxicity, organism-based; details: in vivo, 72 h, time 3 day
Ehrlich [9] = assay: Antitumor activity against mouse Ehrlich solid carcinoma cells bearing adult male swiss albino mouse assessed as decrease in tumor volume at 50 mg/kg, po administered every other day and observed at 13 days; assay type: functional, organism-based; details: time 13.0 day
[10] = Acute ulcerogenic activity in Sprague-Dawley male rat assessed as change in normal glands at 50 mg/kg/day, po administered for 3 days by hematoxylin and eosin staining method; assay type: toxicity, organism-based, Stomach; details: in vivo, 72 h, time 3 day
Ehrlich [11] = assay: Antitumor activity against mouse Ehrlich solid carcinoma cells bearing adult male swiss albino mouse assessed as decrease in tumor weight at 50 mg/kg, po administered every other day and observed at 14 days; assay type: functional, organism-based; details: time 14.0 day
Ehrlich [12] = assay: Antitumor activity against mouse Ehrlich solid carcinoma cells bearing adult male swiss albino mouse assessed as tumor growth inhibition at 50 mg/kg, po administered every other day and observed at 13 days relative to control; assay type: functional; details: 312 h, time 13 day, read-out: TGI
Ehrlich [13] = assay: Antitumor activity against mouse Ehrlich solid carcinoma cells bearing adult male swiss albino mouse assessed as decrease in tumor volume at 50 mg/kg, po administered every other day and observed at 5 days; assay type: functional, organism-based; details: time 5.0 day
HT-29 [14] = assay: Induction of apoptosis in human HT-29 cells assessed as accumulation of cells at viable stage at 0.25 uM incubated for 24 hrs by Annexin V-FITC/propidium iodide staining based flow cytometry analysis (Rvb=91.7%); assay type: functional
HT-29 [15] = assay: Cytotoxicity against human HT-29 cells assessed as inhibition in cell growth incubated for 72 hrs by MTT assay; assay type: functional, cell-based; details: HT-29, 72 h
[16] = Selectivity index, ratio of IC50 for cytotoxicity against human MRC5 cells to IC50 for cytotoxicity against human MCF7 cells; details: MRC5 cells versus MCF7 cells
MCF7 = assay: Cytotoxicity against human MCF7 cells assessed as inhibition in cell growth incubated for 72 hrs by MTT assay; assay type: functional, cell-based; details: MCF7, 72 h
[17] = Acute ulcerogenic activity in Sprague-Dawley male rat assessed as change in normal lamina propria at 50 mg/kg/day, po administered for 3 days by hematoxylin and eosin staining method; assay type: toxicity, organism-based, Stomach; details: in vivo, 72 h, time 3 day
Ehrlich [18] = assay: Antitumor activity against mouse Ehrlich solid carcinoma cells bearing adult male swiss albino mouse assessed as decrease in tumor volume at 50 mg/kg, po administered every other day and observed at 9 days; assay type: functional, organism-based; details: time 9.0 day
[19] = Acute ulcerogenic activity in Sprague-Dawley male rat assessed as incidence of ulcer/10 animal at 50 mg/kg/day, po administered for 3 days; assay type: toxicity, organism-based; details: in vivo, 72 h, time 3 day
HT-29 [20] = assay: Anticlonogenic activity against human HT-29 cells assessed as reduction in number of colonies at 0.25 uM incubated for 24 hrs by clonogenic survival assay; assay type: functional, cell-based
HT-29 [21] = assay: Induction of apoptosis in human HT-29 cells assessed as accumulation of cells at late apoptotic stage at 0.25 uM incubated for 24 hrs by Annexin V-FITC/propidium iodide staining based flow cytometry analysis (reference value: 0.2%); assay type: functional
Rattus norvegicus [22] = assay: Antiinflammatory activity against carrageenan-induced paw edema Sprague-Dawley rat model assessed as inhibition of paw edema by measuring edema thickness at 50 mg/kg, po measured after 5 hrs (reference value: 1.39 +/- 0.11 mm); assay type: functional
Rattus norvegicus [23] = assay: Antiinflammatory activity against carrageenan-induced paw edema Sprague-Dawley rat model assessed as inhibition of inflammation at 50 mg/kg, po after 5 hrs relative to control; assay type: functional; design: scale not given: the % may be the effect or the level left
[24] = Acute ulcerogenic activity in Sprague-Dawley male rat assessed as average number of ulcers at 50 mg/kg/day, po administered for 3 days; assay type: toxicity, organism-based; details: in vivo, 72 h, time 3 day
[25] = Cytotoxicity against human MRC5 cells assessed as inhibition in cell growth incubated for 72 hrs by MTT assay; assay type: toxicity, cell-based
[26] = Selectivity index, ratio of IC50 for cytotoxicity against human MRC5 cells to IC50 for cytotoxicity against human A2780 cells; details: MRC5 cells versus A2780 cells
[27] = molecular target: T1, Prostaglandin G/H synthase 1 (Ovis aries, UniProt P05979); assay: Inhibition of ovine COX-1
T1 sequence (P05979 whole entry): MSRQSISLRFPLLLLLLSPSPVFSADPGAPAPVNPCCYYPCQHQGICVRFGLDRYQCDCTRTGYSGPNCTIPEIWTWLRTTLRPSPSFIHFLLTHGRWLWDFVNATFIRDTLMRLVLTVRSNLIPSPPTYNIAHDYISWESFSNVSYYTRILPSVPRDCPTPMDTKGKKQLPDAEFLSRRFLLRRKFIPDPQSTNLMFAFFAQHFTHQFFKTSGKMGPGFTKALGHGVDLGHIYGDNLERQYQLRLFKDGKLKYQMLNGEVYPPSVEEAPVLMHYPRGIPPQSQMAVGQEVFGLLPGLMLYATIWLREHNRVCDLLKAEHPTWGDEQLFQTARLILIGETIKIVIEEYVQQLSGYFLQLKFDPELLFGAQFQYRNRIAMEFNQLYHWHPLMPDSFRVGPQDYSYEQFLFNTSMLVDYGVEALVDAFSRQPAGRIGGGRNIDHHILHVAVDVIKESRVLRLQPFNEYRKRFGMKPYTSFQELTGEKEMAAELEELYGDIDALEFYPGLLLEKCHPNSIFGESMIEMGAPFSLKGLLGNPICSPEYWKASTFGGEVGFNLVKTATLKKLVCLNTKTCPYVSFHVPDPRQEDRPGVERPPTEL

Rattus norvegicus [28] = assay: Antiinflammatory activity against carrageenan-induced paw edema Sprague-Dawley rat model assessed as inhibition of inflammation at 50 mg/kg, po after 3 hrs relative to control; assay type: functional; design: scale not given: the % may be the effect or the level left
Sus scrofa = species: Sus scrofa; assay: Inhibition of porcine brain tubulin polymerization at 1 uM by fluorescence-based tubulin polymerization assay
HT-29 [29] = assay: Induction of apoptosis in human HT-29 cells assessed as accumulation of cells at early apoptotic stage at 0.25 uM incubated for 24 hrs by Annexin V-FITC/propidium iodide staining based flow cytometry analysis (reference value: 0.1%); assay type: functional
HT-29 [30] = assay: Induction of apoptosis in human HT-29 cells assessed as accumulation of cells at necrotic stage at 0.25 uM incubated for 24 hrs by Annexin V-FITC/propidium iodide staining based flow cytometry analysis (reference value: 8.1%); assay type: functional
A2780 = assay: Cytotoxicity against human A2780 cells assessed as inhibition in cell growth incubated for 72 hrs by MTT assay; assay type: functional, cell-based; details: A2780, 72 h
[31] = Acute ulcerogenic activity in Sprague-Dawley male rat assessed as nonactivated glands in intact mucosa at 50 mg/kg/day, po administered for 3 days by hematoxylin and eosin staining method; assay type: toxicity, organism-based, Stomach; details: in vivo, 72 h, time 3 day
[32] = Acute ulcerogenic activity in Sprague-Dawley male rat by measuring filtration of inflammatory cells in edema at 50 mg/kg/day, po administered for 3 days by hematoxylin and eosin staining method; assay type: toxicity, organism-based, Stomach; details: in vivo, 72 h, time 3 day
[33] = Acute ulcerogenic activity in Sprague-Dawley male rat assessed as congestion in intact mucosa at 50 mg/kg/day, po administered for 3 days by hematoxylin and eosin staining method; assay type: toxicity, organism-based, Stomach; details: in vivo, 72 h, time 3 day

IC50 [27]: 0.62 µM
inhibition (Sus scrofa): inactive
Structure (SMILES): COc1ccc(NC(=O)COc2ccc(N3C(=O)CSC3c3ccccc3)cc2)cc1 (stereo not drawn)
Activity (Rattus norvegicus [1]): 0.56 mm
Activity (Rattus norvegicus [2]): 15.3%
selectivity ratio at 72 h [3]: 25.9
Activity (HT-29 [4]): Active
Activity [5]: Non-Toxic
Activity (Rattus norvegicus [6]): 0.48 mm
UI [7]: 5
Activity [8]: 1
Activity (Ehrlich [9]): Active
Activity [10]: Non-Toxic
Activity (Ehrlich [11]): Active
inhibition in vivo at 50 mg/kg (Ehrlich [12]): 27.4%
Activity (Ehrlich [13]): Active
Activity (HT-29 [14]): 75.8%
IC50 (HT-29 [15]): 0.24 µM
selectivity ratio at 72 h [16]: 4.13
IC50 (MCF7): 1.51 µM
Activity [17]: Non-Toxic
Activity (Ehrlich [18]): Active
Activity [19]: 3.33%
Activity (HT-29 [20]): Active
Activity (HT-29 [21]): 5.3%
Activity (Rattus norvegicus [22]): 0.56 mm
Activity (Rattus norvegicus [23]): 59.7%
Activity [24]: 0.67
IC50 at 72 h [25]: 6.23 µM
selectivity ratio at 72 h [26]: 9.3
Activity (Rattus norvegicus [28]): 32.7%
Activity (HT-29 [29]): 9%
Activity (HT-29 [30]): 9.8%
IC50 (A2780): 0.67 µM

Structure (SMILES): Cc1ccc(-c2cc(C(F)(F)F)nn2-c2ccc(S(N)(=O)=O)cc2)cc1 [CELECOXIB]
Activity (Rattus norvegicus [1]): 0.34 mm
Activity (Rattus norvegicus [2]): 61.97%
Activity (Rattus norvegicus [6]): 0.27 mm
UI [7]: 8.34
Activity [31]: Non-Toxic
Activity [8]: 1
Activity [32]: Non-Toxic
IC50 (HT-29 [15]): 32.5 µM
Activity [33]: Toxic
IC50 (MCF7): 15.4 µM
Activity [19]: 6.67%
Activity (Rattus norvegicus [22]): 0.5 mm
Activity (Rattus norvegicus [23]): 64.03%
Activity [24]: 0.67
IC50 (A2780): 18.1 µM
